Reference: the supplement of paper PMC11061612

What was measured:
MK-2206 = compound: NC1(c2ccc(-c3nc4ccn5c(=O)[nH]nc5c4cc3-c3ccccc3)cc2)CCC1 [MK-2206]; conditions: max 10 µM
In short: (§1)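 Following 24 hours at 37°C and 5% CO2, cancer cell lines in 1536-well plates with 7.5 μl DMEM/F12 or RPMI and 10% FBS were dosed for 72 hours, final DMSO typically being 0.2%. CellTiter-Glo 2.0 luminescence, scaled between blank-well and DMSO-well means, gave the viability readout. Dose responses were fitted to a two-parameter logistic curve with a non-linear mixed effects model, and the single-agent IC50 was derived from this fit.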

AZD2811 = compound: CCN(CCO)CCCOc1ccc2c(Nc3cc(CC(=O)Nc4cccc(F)c4)[nH]n3)ncnc2c1 [AZD2811]; conditions: max 1 µM
In short: as §1

AZD5991 = compound: Cc1c2c(nn1C)CSCc1cc(n(C)n1)CSc1cc(c3ccccc3c1)OCCCc1c(C(=O)O)n(C)c3c-2c(Cl)ccc13 [AZD5991]; conditions: max 1 µM
In short: as §1

Gefitinib = compound: COc1cc2ncnc(Nc3ccc(F)c(Cl)c3)c2cc1OCCCN1CCOCC1 [Gefitinib]; conditions: max 10 µM
In short: as §1

AZD5153 = compound: COc1nnc2ccc(N3CCC(c4ccc(OCCN5CCN(C)C(=O)[C@H]5C)cc4)CC3)nn12 [AZD5153]; conditions: max 1 µM
In short: as §1

SN-38 = compound: CCc1c2c(nc3ccc(O)cc13)-c1cc3c(c(=O)n1C2)COC(=O)[C@]3(O)CC [SN-38]; conditions: max 0.3 µM
In short: as §1

Lapatinib = compound: CS(=O)(=O)CCNCc1ccc(-c2ccc3ncnc(Nc4ccc(OCc5cccc(F)c5)c(Cl)c4)c3c2)o1 [Lapatinib]; conditions: max 10 µM
In short: as §1

Prexasertib = compound: COc1cccc(OCCCN)c1-c1cc(Nc2cnc(C#N)cn2)n[nH]1 [Prexasertib]; conditions: max 1 µM
In short: as §1

Doxorubicin = compound: COc1cccc2c1C(=O)c1c(O)c3c(c(O)c1C2=O)C[C@@](O)(C(=O)CO)C[C@@H]3O[C@H]1C[C@H](N)[C@H](O)[C@H](C)O1 [Doxorubicin]; conditions: max 1 µM
In short: as §1

AZD7648 = compound: Cc1cc2ncnn2cc1Nc1ncc2c(n1)n(C1CCOCC1)c(=O)n2C [AZD7648]; conditions: max 10 µM
In short: as §1

Venetoclax = compound: CC1(C)CCC(CN2CCN(c3ccc(C(=O)NS(=O)(=O)c4ccc(NCC5CCOCC5)c([N+](=O)[O-])c4)c(Oc4cnc5[nH]ccc5c4)c3)CC2)=C(c2ccc(Cl)cc2)C1 [Venetoclax]; conditions: max 1 µM
In short: as §1

Dasatinib = compound: CC1=C(C(=CC=C1)Cl)NC(=O)C2=CN=C(S2)NC3=CC(=NC(=N3)C)N4CCN(CC4)CCO [Dasatinib]; conditions: max 2 µM
In short: as §1

Crizotinib = compound: C[C@@H](Oc1cc(-c2cnn(C3CCNCC3)c2)cnc1N)c1c(Cl)ccc(F)c1Cl [Crizotinib]; conditions: max 10 µM
In short: as §1

Capivasertib = compound: C1CN(CCC1(C(=O)N[C@@H](CCO)C2=CC=C(C=C2)Cl)N)C3=NC=NC4=C3C=CN4 [Capivasertib]; conditions: max 10 µM
In short: as §1

AZD6738 = compound: C[C@@H]1COCCN1C2=NC(=NC(=C2)C3(CC3)[S@](=N)(=O)C)C4=C5C=CNC5=NC=C4 [AZD6738]; conditions: max 10 µM
In short: as §1

Taselisib = compound: Cc1nc(-c2cn3c(n2)-c2ccc(-c4cnn(C(C)(C)C(N)=O)c4)cc2OCC3)n(C(C)C)n1 [Taselisib]; conditions: max 10 µM
In short: as §1

AZD4320 = compound: CN(CC[C@H](CSC1=CC=CC=C1)NC2=C(C=C(C=C2)S(=O)(=O)NC(=O)C3=CC=C(C=C3)N4CCC(CC4)[C@H](C5=CC=CC=C5C6=CC=C(C=C6)Cl)O)S(=O)(=O)C(F)(F)F)CCO [AZD4320]; conditions: max 1 µM
In short: as §1

AZD0156 = compound: CN(C)CCCOc1ccc(-c2ccc3ncc4c(c3c2)n(C2CCOCC2)c(=O)n4C)cn1 [AZD0156]; conditions: max 3 µM
In short: as §1

Savolitinib = compound: C[C@@H](c1ccc2nccn2c1)n1nnc2ncc(-c3cnn(C)c3)nc21 [Savolitinib]; conditions: max 1 µM
In short: as §1

Selumetinib = compound: Cn1cnc2c(F)c(Nc3ccc(Br)cc3Cl)c(C(=O)NOCCO)cc21 [Selumetinib]; conditions: max 10 µM
In short: as §1

Alisertib = compound: COc1cc(Nc2ncc3c(n2)-c2ccc(Cl)cc2C(c2c(F)cccc2OC)=NC3)ccc1C(=O)O [Alisertib]; conditions: max 10 µM
In short: as §1

SG3199 = compound: CC1=CN2[C@@H](C1)C=NC3=CC(=C(C=C3C2=O)OC)OCCCCCOC4=C(C=C5C(=C4)N=C[C@@H]6CC(=CN6C5=O)C)OC [SG3199]; conditions: max 0.001 µM
In short: as §1

AZD1390 = compound: CC(C)n1c(=O)n(C)c2cnc3cc(F)c(-c4ccc(OCCCN5CCCCC5)nc4)cc3c21 [AZD1390]; conditions: max 0.3 µM
In short: as §1

Trametinib = compound: CC(=O)Nc1cccc(-n2c(=O)n(C3CC3)c(=O)c3c(Nc4ccc(I)cc4F)n(C)c(=O)c(C)c32)c1 [Trametinib]; conditions: max 1 µM
In short: as §1

Palbociclib = compound: CC(=O)c1c(C)c2cnc(Nc3ccc(N4CCNCC4)cn3)nc2n(C2CCCC2)c1=O [Palbociclib]; conditions: max 10 µM
In short: as §1

AZD8186 = compound: C[C@@H](Nc1cc(F)cc(F)c1)c1cc(C(=O)N(C)C)cc2c(=O)cc(N3CCOCC3)oc12 [AZD8186]; conditions: max 3 µM
In short: as §1

AZD1775 = compound: C=CCn1c(=O)c2cnc(Nc3ccc(N4CCN(C)CC4)cc3)nc2n1-c1cccc(C(C)(C)O)n1 [AZD1775]; conditions: max 3 µM
In short: as §1

Olaparib = compound: O=C(c1cc(Cc2n[nH]c(=O)c3ccccc23)ccc1F)N1CCN(C(=O)C2CC2)CC1 [Olaparib]; conditions: max 10 µM
In short: as §1

Cell Line	IC50, cell viability 72 h (MK-2206) [µM]	IC50, cell viability 72 h (AZD2811) [µM]	IC50, cell viability 72 h (AZD5991) [µM]	IC50, cell viability 72 h (Gefitinib) [µM]	IC50, cell viability 72 h (AZD5153) [µM]	IC50, cell viability 72 h (SN-38) [µM]	IC50, cell viability 72 h (Lapatinib) [µM]	IC50, cell viability 72 h (Prexasertib) [µM]	IC50, cell viability 72 h (Doxorubicin) [µM]	IC50, cell viability 72 h (AZD7648) [µM]	IC50, cell viability 72 h (Venetoclax) [µM]	IC50, cell viability 72 h (Dasatinib) [µM]	IC50, cell viability 72 h (Crizotinib) [µM]	IC50, cell viability 72 h (Capivasertib) [µM]	IC50, cell viability 72 h (AZD6738) [µM]	IC50, cell viability 72 h (Taselisib) [µM]	IC50, cell viability 72 h (AZD4320) [µM]	IC50, cell viability 72 h (AZD0156) [µM]	IC50, cell viability 72 h (Savolitinib) [µM]	IC50, cell viability 72 h (Selumetinib) [µM]	IC50, cell viability 72 h (Alisertib) [µM]	IC50, cell viability 72 h (SG3199) [µM]	IC50, cell viability 72 h (AZD1390) [µM]	IC50, cell viability 72 h (Trametinib) [µM]	IC50, cell viability 72 h (Palbociclib) [µM]	IC50, cell viability 72 h (AZD8186) [µM]	IC50, cell viability 72 h (AZD1775) [µM]	IC50, cell viability 72 h (Olaparib) [µM]
NCI-H1944 (Lung Adenocarcinoma)	> 10	> 1	> 1	> 10	0.491	0.134	> 10	0.134	> 1	> 10	> 1	> 2	> 10	7.93	3.98	1.6	> 1	> 3	> 1	> 10	4.87	> 0.001	> 0.3	0.733	> 10	> 3	0.839	> 10
OCI-M1 (Acute Myeloid Leukemia)	> 10	> 1	> 1	> 10	0.0162	0.0134	> 10	0.0186	0.443	> 10	> 1	> 2	1.4	> 10	0.657	> 10	0.131	> 3	> 1	1.81	0.516	> 0.001	> 0.3	0.0354	9.53	> 3	0.426	> 10
RS4-11 (B-Lymphoblastic Leukemia)		0.00884	0.723	> 10	0.191	0.00479	> 10	0.0167	0.46	> 10	0.00579	> 2	1.52	9.4	1.39	7.52	0.00382	> 3	> 1	> 10	0.0322	> 0.001	> 0.3	> 1	4.98	> 3	0.268	> 10
